Assay results as given in patent US10844052B2, “LLS compounds for treatment of cancer” (THE REGENTS OF THE UNIVERSITY OF CALIFORNIA, priority 2016, dated 2020).

System: PC3 prostate cancer cells
Test: Cell viability of prostate cancer PC3 cells after 72 hours treatment
Type: cell-based
Conditions: Homo sapiens; for viability at 2.5 µM: PC-3, 2.5 μM; for viability at 5 µM: PC-3, 5 μM; for viability at 10 µM: PC-3, 10 μM; for viability at 20 µM: PC-3, 20 μM
Protocol: Effects of compounds LLS42-LLS80 on the viability of PC3 prostate cancer cells after 72 hours of treatment are shown in Table 2 below: […]

**Q.** For `NC(=O)CC(NCC1CCCCC1)c1ccc2c(c1)nc(-c1ccc(N(CCO)CCO)cc1)n2Cc1ccc(C(F)(F)F)cc1` (stereo not drawn) [LLS71, 3-(2-(4-(bis(2-hydroxyethyl)amino)phenyl)-1-(4-(trifluoromethyl)benzyl)-1H-benzo[d]imidazol-5-yl)-3-((cyclohexylmethyl)amino)propanamide], which viability at 2.5 µM is on record?
**A.** 91%

**Q.** What about the viability at 5 µM of the same molecule?
**A.** 83%

**Q.** What about the viability at 10 µM of the same molecule?
**A.** 59%

**Q.** And the viability at 20 µM?
**A.** 3%

**Q.** What does the source list for `NC(=O)CC(NCc1ccc2[nH]ncc2c1)c1ccc2c(c1)nc(-c1ccc(N(CCO)CCO)cc1)n2Cc1ccc(C(F)(F)F)cc1` (stereo not drawn) [LLS77, 3-(((1H-indazol-5-yl)methyl)amino)-3-(2-(4-(bis(2-hydroxyethyl)amino)phenyl)-1-(4-(trifluoromethyl)benzyl)-1H-benzo[d]imidazol-5-yl)propanamide]?
**A.** viability at 2.5 µM: 99%; viability at 5 µM: 100%; viability at 10 µM: 101%; viability at 20 µM: 103%

**Q.** With `CC(=O)OCCN(CCO)c1ccc(-c2nc3cc(C(CC(N)=O)NCc4ccc(-c5ccncc5)cc4)ccc3n2CCCn2ccnc2)cc1` (stereo not drawn) [LLS67, 2-((4-(1-(3-(1H-imidazol-1-yl)propyl)-5-(3-amino-3-oxo-1-((4-(pyridin-4-yl)benzyl)amino)propyl)-1H-benzo[d]imidazol-2-yl)phenyl)(2-hydroxyethyl)amino)ethyl Acetate] as the molecule, how does the viability at 2.5 µM read?
**A.** 93%

**Q.** And the viability at 5 µM?
**A.** 94%

**Q.** What about the viability at 10 µM of the same molecule?
**A.** 99%

**Q.** And the viability at 20 µM?
**A.** 93%

**Q.** Which viability at 2.5 µM does the source give for `NC(=O)CC(NCc1ccc(Cl)c(Cl)c1)c1ccc2c(c1)nc(-c1ccc(N(CCO)CCO)cc1)n2CCCN1CCCCC1` (stereo not drawn) [LLS46, 3-(2-(4-(bis(2-hydroxyethyl)amino)phenyl)-1-(3-(piperidin-1-yl)propyl)-1H-benzo[d]imidazol-5-yl)-3-((3,4-dichlorobenzyl)amino)propanamide] here?
**A.** 86%

**Q.** And the viability at 5 µM?
**A.** 97%

**Q.** What about the viability at 10 µM of the same molecule?
**A.** 92%

**Q.** What about the viability at 20 µM of the same molecule?
**A.** 94%

**Q.** How did the viability at 2.5 µM turn out when `NC(=O)CC(NCC1CCCCC1)c1ccc2c(c1)nc(-c1ccc(N(CCO)CCO)cc1)n2Cc1ccc(OC(F)(F)F)cc1` (stereo not drawn) [LLS42, 3-(2-(4-(bis(2-hydroxyethyl)amino)phenyl)-1-(4-(trifluoromethoxy)benzyl)-1H-benzo[d]imidazol-5-yl)-3-((cyclohexylmethyl)amino)propanamide] was run?
**A.** 95%

**Q.** And the viability at 5 µM?
**A.** 92%

**Q.** And the viability at 10 µM?
**A.** 49%

**Q.** And the viability at 20 µM?
**A.** 0%

**Q.** `NC(=O)CC(NCc1cccc2ccccc12)c1ccc2c(c1)nc(-c1ccc(N(CCO)CCO)cc1)n2Cc1ccc(C(F)(F)F)cc1` (stereo not drawn) [LLS73, 3-(2-(4-(bis(2-hydroxyethyl)amino)phenyl)-1-(4-(trifluoromethyl)benzyl)-1H-benzo[d]imidazol-5-yl)-3-((naphthalen-1-ylmethyl)amino)propanamide] was tested. Which viability at 2.5 µM did it give?
**A.** 94%

**Q.** And the viability at 5 µM?
**A.** 92%

**Q.** What about the viability at 10 µM of the same molecule?
**A.** 69%

**Q.** And the viability at 20 µM?
**A.** 8%

**Q.** With `NCCCn1c(-c2ccc(N(CCO)CCO)cc2)nc2cc(C(CC(N)=O)NCc3ccc(C4CC=NN4)s3)ccc21` (stereo not drawn) [LLS54, 3-(1-(3-aminopropyl)-2-(4-(bis(2-hydroxyethyl)amino)phenyl)-1H-benzo[d]imidazol-5-yl)-3-(((5-(4,5-dihydro-1H-pyrazol-5-yl)thiophen-2-yl)methyl)amino)propanamide] as the molecule, how does the viability at 2.5 µM read?
**A.** 90%

**Q.** What about the viability at 5 µM of the same molecule?
**A.** 86%

**Q.** And the viability at 10 µM?
**A.** 105%

**Q.** What about the viability at 20 µM of the same molecule?
**A.** 87%

**Q.** `COc1cc(CNC(CC(N)=O)c2ccc3c(c2)nc(-c2ccc(N(CCOC(C)=O)CCOC(C)=O)cc2)n3C(C)C)cc(Br)c1OC` (stereo not drawn) [LLS43Ac, ((4-(5-(3-amino-1-((3-bromo-4,5-dimethoxybenzyl)amino)-3-oxopropyl)-1-isopropyl-1H-benzo[d]imidazol-2-yl)phenyl)azanediyl)bis(ethane-2,1-diyl) Diacetate] was tested. Which viability at 2.5 µM did it give?
**A.** 97%

**Q.** What about the viability at 5 µM of the same molecule?
**A.** 102%

**Q.** And the viability at 10 µM?
**A.** 103%

**Q.** What about the viability at 20 µM of the same molecule?
**A.** 97%

**Q.** Which viability at 2.5 µM does the source give for `NC(=O)CC(NCc1ccc(-c2ccncc2)cc1)c1ccc2c(c1)nc(-c1ccc(N(CCO)CCO)cc1)n2CCCn1ccnc1` (stereo not drawn) [LLS58, 3-(1-(3-(1H-imidazol-1-yl)propyl)-2-(4-(bis(2-hydroxyethyl)amino)phenyl)-1H-benzo[d]imidazol-5-yl)-3-((4-(pyridin-4-yl)benzyl)amino)propanamide] here?
**A.** 92%

**Q.** And the viability at 5 µM?
**A.** 84%

**Q.** What about the viability at 10 µM of the same molecule?
**A.** 81%

**Q.** What about the viability at 20 µM of the same molecule?
**A.** 74%

**Q.** What does the source list for `CN1CCN(c2ccc(-c3nc4cc(C(CC(N)=O)NCc5ccc(Cl)c(Cl)c5)ccc4n3Cc3ccc(C(F)(F)F)cc3)cc2)CC1` (stereo not drawn) [LLS64, 3-((3,4-dichlorobenzyl)amino)-3-(2-(4-(4-methylpiperazin-1-yl)phenyl)-1-(4-(trifluoromethyl)benzyl)-1H-benzo[d]imidazol-5-yl)propanamide]?
**A.** viability at 2.5 µM: 94%; viability at 5 µM: 83%; viability at 10 µM: 60%; viability at 20 µM: 3%

**Q.** Which viability at 2.5 µM does the source give for `NC(=O)CC(NCc1cccn1S(=O)(=O)c1ccccc1)c1ccc2c(c1)nc(-c1ccc(N(CCO)CCO)cc1)n2CCCN1CCCCC1` (stereo not drawn) [LLS52, 3-(2-(4-(bis(2-hydroxyethyl)amino)phenyl)-1-(3-(piperidin-1-yl)propyl)-1H-benzo[d]imidazol-5-yl)-3-(((1-(phenylsulfonyl)-1H-pyrrol-2-yl)methyl)amino)propanamide] here?
**A.** 97%

**Q.** What about the viability at 5 µM of the same molecule?
**A.** 96%

**Q.** And the viability at 10 µM?
**A.** 87%

**Q.** And the viability at 20 µM?
**A.** 84%

**Q.** For `COc1ccc(CCn2c(-c3ccc(N(CCO)CCO)cc3)nc3cc(C(CC(N)=O)NCc4ccc5[nH]ncc5c4)ccc32)cc1` (stereo not drawn) [LLS53, 3-(((1H-indazol-5-yl)methyl)amino)-3-(2-(4-(bis(2-hydroxyethyl)amino)phenyl)-1-(4-methoxyphenethyl)-1H-benzo[d]imidazol-5-yl)propanamide], which viability at 2.5 µM is on record?
**A.** 93%

**Q.** And the viability at 5 µM?
**A.** 91%

**Q.** And the viability at 10 µM?
**A.** 98%

**Q.** What about the viability at 20 µM of the same molecule?
**A.** 105%

**Q.** Which viability at 2.5 µM does the source give for `CC(=O)OCCN(CCO)c1ccc(-c2nc3cc(C(CC(N)=O)NCc4ccc(-c5ccn[nH]5)s4)ccc3n2CCCN(C)C)cc1` (stereo not drawn) [LLS66, 2-((4-(5-(1-(((5-(1H-pyrazol-5-yl)thiophen-2-yl)methyl)amino)-3-amino-3-oxopropyl)-1-(3-(dimethylamino)propyl)-1H-benzo[d]imidazol-2-yl)phenyl)(2-hydroxyethyl)amino)ethyl Acetate] here?
**A.** 98%

**Q.** What about the viability at 5 µM of the same molecule?
**A.** 91%

**Q.** And the viability at 10 µM?
**A.** 89%

**Q.** What about the viability at 20 µM of the same molecule?
**A.** 79%

**Q.** How did the viability at 2.5 µM turn out when `CC(=O)OCCN(CCOC(C)=O)c1ccc(-c2nc3cc(C(CC(N)=O)NCc4ccc(Br)s4)ccc3n2CCN)cc1` (stereo not drawn) [LLS45Ac, ((4-(5-(3-amino-1-(((5-bromothiophen-2-yl)methyl)amino)-3-oxopropyl)-1-(2-aminoethyl)-1H-benzo[d]imidazol-2-yl)phenyl)azanediyl)bis(ethane-2,1-diyl) Diacetate] was run?
**A.** 98%

**Q.** What about the viability at 5 µM of the same molecule?
**A.** 98%

**Q.** What about the viability at 10 µM of the same molecule?
**A.** 98%

**Q.** And the viability at 20 µM?
**A.** 91%

**Q.** What does the source list for `NCCn1c(-c2ccc(N(CCO)CCO)cc2)nc2cc(C(CC(N)=O)NCc3ccc(Br)s3)ccc21` (stereo not drawn) [LLS45, 3-(1-(2-aminoethyl)-2-(4-(bis(2-hydroxyethyl)amino)phenyl)-1H-benzo[d]imidazol-5-yl)-3-(((5-bromothiophen-2-yl)methyl)amino)propanamide]?
**A.** viability at 2.5 µM: 92%; viability at 5 µM: 102%; viability at 10 µM: 118%; viability at 20 µM: 117%

**Q.** With `NC(=O)CC(NCc1ccc2[nH]ncc2c1)c1ccc2c(c1)nc(-c1ccc(N(CCO)CCO)cc1)n2Cc1ccc(OC(F)(F)F)cc1` (stereo not drawn) [LLS55, 3-(((1H-indazol-5-yl)methyl)amino)-3-(2-(4-(bis(2-hydroxyethyl)amino)phenyl)-1-(4-(trifluoromethoxy)benzyl)-1H-benzo[d]imidazol-5-yl)propanamide] as the molecule, how does the viability at 2.5 µM read?
**A.** 91%

**Q.** And the viability at 5 µM?
**A.** 100%

**Q.** And the viability at 10 µM?
**A.** 102%

**Q.** And the viability at 20 µM?
**A.** 92%

**Q.** With `CC(=O)OCCN(CCOC(C)=O)c1ccc(-c2nc3cc(C(CC(N)=O)NCc4cccn4S(=O)(=O)c4ccccc4)ccc3n2CCCN2CCCCC2)cc1` (stereo not drawn) [LLS52Ac, ((4-(5-(3-amino-3-oxo-1-(((1-(phenylsulfonyl)-1H-pyrrol-2-yl)methyl)amino)propyl)-1-(3-(piperidin-1-yl)propyl)-1H-benzo[d]imidazol-2-yl)phenyl)azanediyl)bis(ethane-2,1-diyl) Diacetate] as the molecule, how does the viability at 2.5 µM read?
**A.** 91%

**Q.** And the viability at 5 µM?
**A.** 96%

**Q.** What about the viability at 10 µM of the same molecule?
**A.** 94%

**Q.** What about the viability at 20 µM of the same molecule?
**A.** 91%

**Q.** How did the viability at 2.5 µM turn out when `COc1ccc(CCn2c(-c3ccc(N(CCO)CCO)cc3)nc3cc(C(CC(N)=O)NCC4CCCCC4)ccc32)cc1` (stereo not drawn) [LLS56] was run?
**A.** 104%

**Q.** What about the viability at 5 µM of the same molecule?
**A.** 105%

**Q.** And the viability at 10 µM?
**A.** 98%

**Q.** And the viability at 20 µM?
**A.** 93%

**Q.** Which results are given for `COc1ccc(CCn2c(-c3ccc(N(CCOC(C)=O)CCOC(C)=O)cc3)nc3cc(C(CC(N)=O)NCC4CCCCC4)ccc32)cc1` (stereo not drawn) [LLS56Ac, ((4-(5-(3-amino-1-((cyclohexylmethyl)amino)-3-oxopropyl)-1-(4-methoxyphenethyl)-1H-benzo[d]imidazol-2-yl)phenyl)azanediyl)bis(ethane-2,1-diyl) Diacetate]?
**A.** viability at 2.5 µM: 85%; viability at 5 µM: 93%; viability at 10 µM: 92%; viability at 20 µM: 55%

**Q.** Which results are given for `CC(=O)OCCN(CCOC(C)=O)c1ccc(-c2nc3cc(C(CC(N)=O)NCc4ccc(-c5ccn[nH]5)s4)ccc3n2CCCN(C)C)cc1` (stereo not drawn) [LLS78, ((4-(5-(1-(((5-(1H-pyrazol-5-yl)thiophen-2-yl)methyl)amino)-3-amino-3-oxopropyl)-1-(3-(dimethylamino)propyl)-1H-benzo[d]imidazol-2-yl)phenyl)azanediyl)bis(ethane-2,1-diyl) Diacetate]?
**A.** viability at 2.5 µM: 97%; viability at 5 µM: 93%; viability at 10 µM: 101%; viability at 20 µM: 100%

**Q.** Which results are given for `NC(=O)CC(NCc1ccc(Cl)c(Cl)c1)c1ccc2c(c1)nc(-c1ccc(N3CCOCC3)cc1)n2CCCN1CCCCC1` (stereo not drawn) [LLS65, 3-((3,4-dichlorobenzyl)amino)-3-(2-(4-morpholinophenyl)-1-(3-(piperidin-1-yl)propyl)-1H-benzo[d]imidazol-5-yl)propanamide]?
**A.** viability at 2.5 µM: 95%; viability at 5 µM: 94%; viability at 10 µM: 74%; viability at 20 µM: 34%
